This note sets out measurements from patent US6656911B2, “Serine protease inhibitors” (Cortech, Inc., priority 1994, dated 2003).

This test addresses T1, human neutrophil elastase (HNE) (Homo sapiens, UniProt P08246).
T1 sequence (P08246 30-267): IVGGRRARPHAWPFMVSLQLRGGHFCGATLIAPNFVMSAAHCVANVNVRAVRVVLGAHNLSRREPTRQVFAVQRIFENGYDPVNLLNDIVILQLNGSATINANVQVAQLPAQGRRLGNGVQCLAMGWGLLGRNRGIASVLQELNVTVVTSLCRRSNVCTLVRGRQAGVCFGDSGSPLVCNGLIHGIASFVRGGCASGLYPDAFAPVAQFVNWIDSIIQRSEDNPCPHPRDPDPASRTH
In words: HNE Ki of CE compounds, tested as described in WO 96/16080. Particulars: read-out: HNE Ki. Type of test: biochemical.

What is called Ki is a dissociation constant, usually derived from enzyme kinetics or from competition with a known ligand. As to `Cc1cccc(Cc2nnc(C(=O)[C@@H](NC(=O)CN3CC(=O)N(c4ccccc4)CC3=O)C(C)C)o2)c1` [CE2147, (1-Phenyl-3,6-piperazinedione)-N-[1-(2-[5-(3-methylbenzyl)-1,3,4-oxadiazolyl]carbonyl)-2-(S)-methylpropyl]acetamide], the Ki was determined as 1600 nM.

For the compound `Cc1cc(C)cc(Cc2nc(C(=O)[C@@H](NC(=O)[C@@H]3CCCN3C(=O)[C@@H](NC(=O)OCc3ccccc3)C(C)C)C(C)C)no2)c1` [CE2052, (Benzyloxycarbonyl)-L-valyl-N-[1-(3-[5-(3,5-dimethylbenzyl)-1,2,4-oxadiazolyl)carbonyl)-2-(S)-methylpropyl]-L-prolinamide], the inhibition constant (Ki) turned out to be 0.37 nM.

Regarding `Cc1nnc(C(=O)[C@@H](NC(=O)[C@@H]2CCCN2C(=O)[C@@H](NC(=O)OCc2ccccc2)C(C)C)C(C)C)o1` [CE2074], the inhibition constant (Ki) is 1 nM.

As to `Cc1cccc(Cc2nnc(C(=O)C(NC(=O)C3Cc4ccccc4CN3C(=O)C(NC(=O)OCc3ccccc3)C(C)C)C(C)C)o2)c1` [CE2183, Benzyloxycarbonyl-L-valyl-(1,2,3,4-tetrahydroisoquinoline)-3-N-[1-(2-[5-(3-methylbenzyl)-1,3,4-oxadiazolyl]carbonyl)-2-(R,S)-methylpropyl]amide], the Ki worked out at 0.23 nM.

`CC(C)[C@H](NC(=O)CN1C(=O)CN(Cc2ccccc2)C1=O)C(=O)c1noc(Cc2cccc(C(F)(F)F)c2)n1` [CE2189, 1-Benzyl-2,4-imidazolidinedione-N-[1-(3-[5-(3-trifluoromethylbenzyl)-1,2,4-oxadiazolyl]carbonyl)-2-(S)-methylpropyl]acetamide]: the Ki came out at 99 nM.

As for “(R,S)-3-Amino-2-oxo-5-phenyl-1,4-(6-2′-chlorobenzodiazepine)-N-[1-(2-[5-phenyl-1,3,4-oxadiazolyl]carbonyl)-2-(R,S)-propyl]acetamide [CE2211]”, the Ki was 348 nM.

As for `Cc1cccc(Cc2nnc(C(=O)[C@@H](NC(=O)CN3C(=O)CSC3Cc3ccccc3)C(C)C)o2)c1` (stereo partly drawn) [CE2122], the Ki worked out at 63 nM.

As to `CC(C)[C@H](NC(=O)[C@@H]1CCCN1C(=O)[C@@H](NC(=O)OCc1ccccc1)C(C)C)C(=O)c1noc(Cc2cccc(-c3ccccc3)c2)n1` [CE2062, (Benzyloxycarbonyl)-L-valyl-N-[1-(3-[5{3-phenylbenzyl)-1,2,4-oxadiazolyl]carbonyl)-2-(S)-methylpropyl]-L-prolinamide], the inhibition constant (Ki) was determined as 0.3 nM.

For `Cc1cccc(Cc2nnc(C(=O)C(NC(=O)CN3CC(=O)NC[C@H]3c3ccccc3)C(C)C)o2)c1` (stereo partly drawn) [CE2208, (2-(R)-Phenylpiperazin-5-one)-N-[1-(2-[5-(3-methylbenzyl)-1,3,4-oxadiazolyl]carbonyl)-2-(R,S)-methylpropyl]acetamide], the inhibition constant (Ki) was found to be 40 nM.

For the compound `Cc1cccc(Cc2nnc(C(=O)[C@@H](NC(=O)Cn3c(-c4cccs4)ncc(N)c3=O)C(C)C)o2)c1` [CE2262, 2-[5-Amino-6-oxo-2-thiophenyl-1,6-dihydro-1-pyrimidinyl]-N-[1-(2-[5-(3-methylbenzyl)-1,3,4-oxadiazolyl]carbonyl)-2-(S)-methylpropyl]acetamide], the inhibitory constant (Ki) is 0.42 nM.

Turning to `Cc1cccc(Cc2nnc(C(=O)[C@@H](NC(=O)Cn3c(-c4cccnc4)ncc(N)c3=O)C(C)C)o2)c1` [CE2263, 2-[5-Amino-6-oxo-2-(3-pyridyl)-1,6-dihydro-1-pyrimidinyl]-N-[1-(2-[5-(3-methylbenzyl)-1,3,4-oxadiazolyl]carbonyl)-2-(S)-methylpropyl]acetamide], the Ki was 0.67 nM.

For the compound `Cc1cccc(Cc2nnc(C(=O)[C@@H](NC(=O)CN3C(=O)CN(Cc4ccc5c(c4)OCCO5)C(=O)[C@H]3Cc3ccccc3)C(C)C)o2)c1` [CE2197, 4-[1-(3,4-Ethylenedioxybenzyl)-3-(R)-benzylpiperazine-2,5-dione]-N-[1-(2-[5-(3-methylbenzyl)-1,3,4-oxadiazolyl]carbonyl)-2-(S)-methylpropyl]acetamide], the inhibition constant (Ki) is 4.8 nM.

Regarding `CC(C)C(NC(=O)CN1C(=O)CN(C)C(=O)C1c1ccccc1)C(=O)c1noc(Cc2cccc(C(F)(F)F)c2)n1` [CE2084, 4-[1-Methyl-3-(R,S)-phenylpiperazine-2,5,-dione]-N-[1-(3-[5-(3-trifluoromethylbenzyl)-1,2,4-oxadiazolyl]carbonyl)-2-(S)-methylpropyl]acetamide], the Ki was 133 nM.

Consider `Cc1cccc(Cc2nnc(C(=O)[C@@H](NC(=O)[C@@H]3CCCN3C(=O)[C@@H](NC(=O)OC(C)C)C(C)C)C(C)C)o2)c1` [CE2202, Isopropyloxycarbonyl-L-valyl-N-[1-(2-[5-(3-methylbenzyl)-1,3,4-oxadiazolyl]carbonyl)-2-(S)-methylpropyl]-L-prolinamide], for which the Ki was determined as 0.12 nM.

Consider `Cc1cccc(Cc2nnc(C(=O)[C@@H](NC(=O)CN3CCC(n4c(=O)[nH]c5ccccc54)CC3)C(C)C)o2)c1` [CE2212, 3-[1-(4-Piperidine)]-benzimidazolidin-2-one-N-[1-(2-[5-(3-methylbenzyl)-1,3,4-oxadiazolyl]carbonyl)-2-(S)-methylpropyl]acetamide], for which the Ki was found to be 124 nM.

As for `CC(C)[C@H](NC(=O)CN1C(=O)NC(c2ccc(N(C)C)cc2)C1=O)C(=O)c1noc(Cc2cccc(C(F)(F)F)c2)n1` (stereo partly drawn) [CE2200, [4-(R,S)-(4-Dimethylaminophenyl)]-2,5-imidazolidinedione-N-[1-(3-[5-(3-trifluoromethylbenzyl)-1,2,4-oxadiazolyl]carbonyl)-2-(S)-methylpropyl]acetamide], the Ki amounted to 13.7 nM.

With `CC(C)[C@H](NC(=O)CN1C(=O)NC(c2ccccc2)C1=O)C(=O)c1noc(Cc2cccc(C(F)(F)F)c2)n1` (stereo partly drawn) [CE2198, 4-(R,S)-Phenyl-2,5-imidazolidinedione-N-[1-(3-[5-(3-trifluoromethylbenzyl)-1,2,4-oxadiazolyl]carbonyl)-2-(S)-methylpropyl]acetamide], the Ki was 3.1 nM.

`CC(C)[C@H](NC(=O)[C@@H]1CCCN1C(=O)[C@@H](NC(=O)OCc1ccccc1)C(C)C)C(=O)c1noc(Cc2cccnc2)n1` [CE2078, (Benzyloxycarbonyl)-L-valyl-N-[1-(3-[5-(3-pyridylmethyl)-1,2,4-oxadiazolyl]carbonyl)-2-(S)-methylpropyl]-L-prolinamide]: the inhibition constant (Ki) came to 1.05 nM.

Turning to `CC(C)[C@H](NC(=O)CN1C(=O)N[C@@H](Cc2ccccc2)C1=O)C(=O)c1noc(Cc2cccc(C(F)(F)F)c2)n1` [CE2155, 5-(S)-Benzyl-2,4-imidazolidinedione-N-[1-(3-[5-(3-trifluoromethylbenzyl)-1,2,4-oxadiazolyl]carbonyl)-2-(S)-methylpropyl]acetamide], the inhibition constant (Ki) was 57 nM.

In the case of `CC(C)[C@H](NC(=O)CN1CCCC(NC(=O)OCc2ccccc2)C1=O)C(=O)c1noc(Cc2cccc(C(F)(F)F)c2)n1` (stereo partly drawn) [CE2160, 3-(R,S)-[(Benzyloxycarbonyl)amino-δ-lactam]-N-[1-(3-[5-(3-trifluoromethylbenzyl)-1,2,4-oxadiazolyl]carbonyl)-2-(S)-methylpropyl]acetamide], the inhibition constant (Ki) was found to be 260 nM.

As for `Cc1cccc(Cc2nnc(C(=O)[C@@H](NC(=O)Cn3c(=O)[nH]n(-c4ccccc4)c3=O)C(C)C)o2)c1` [CE2166, 1-Phenyl-1,2,4-triazolidine-3,5-dione-N-[1-(2-[5-(3-methylbenzyl)-1,3,4-oxadiazolyl]carbonyl)-2-(S)-methylpropyl]acetamide], the Ki amounted to 145 nM.
